US9511055B2, “Angiotensin in treating brain conditions” (TARIX PHARMACEUTICALS LTD., priority 2012, dated 2016)

Legend:
Assay type in all cases: in vivo
[1] = test system: MCAO rat model of ischemic stroke; assay: Stepping test (forelimb akinesia) after tMCAO; conditions: for stepping test performance vs control: day 15; for stepping test performance vs vehicle control: all experimental conditions (s.c. daily injection or Alzet pump, 28 days), by Day 21 post-surgery
Description: (§1) For the purposes of this example, Transient middle cerebral artery occlusion (tMCAO) procedure Day is defined as “Day 1” in this study. On the day of surgery anesthesia were induced with 4% isoflurane in a mixture of 70% N2O and 30% O2 and maintained with 1.5-2% isoflurane.
(§2) The tMCAO procedures were performed according to the method described R. Schmid-Elsaesser et al. Briefly, the right CCA (Common Carotid Artery) was exposed through a midline neck incision and carefully dissected free from surrounding nerves and fascia—from its bifurcation to the base of the skull. The occipital artery branches of the ECA (External Carotid Artery) were then isolated, and these branches were dissected and coagulated. The ECA was dissected further distally and coagulated along with the terminal lingual and maxillary artery branches, which was then divided. The ICA (Internal Carotid Artery) was isolated and carefully separated from the adjacent vagus nerve, and the pterygopalatine artery was ligated close to its origin with a 5-0 nylon suture (SMI, Belgium). Next, a 4-0 silk suture was tied loosely around the mobilized ECA stump, and a 4 cm length of 4-0 monofilament nylon suture (the tip of the suture was blunted by using a flame, and the suture was coated with polylysine, prior to insertion) was inserted through the proximal ECA into the ICA and thence into the circle of Willis, effectively occluding the MCA. The surgical wound was closed and the animals were returned to their cages to recover from anesthesia. One hour and a half after occlusion rats were re-anesthetized, the monofilament was withdrawn to allow reperfusion, the surgical wound was closed and rats were returned to their cages.
(§3) Animals were subjected to a modified Modified Neurological Rating Scale (mNRS) at 24 hours post reperfusion. Only animals with an overall score of ≧10 are included in this study. Animals were allocated into the test groups, according to the mNRS results on day 2, in order to have similar distribution of rats performance between groups. Started on day 2, 24 hours post-surgery, each animal is implanted subcutaneously with osmotic Alzet pump and is treated by continuous PanCyte administration (2.5 mg/ml or 25 mg/ml in PBS; SEQ ID NO:22).
Animals were tested for forelimb akinesia in a stepping test. The animal was held with its hind limbs fixed with one hand and the forelimb not monitored with the other, while the unrestrained fore-paw touches a table. The number of adjusting steps were counted while the animal was moved sideways along the table surface (85 cm in approximately five seconds), in the forehand & backhand direction for both forelimbs. […] Four groups were analyzed in this test, a control group (receiving only PBS for 49 days), a group receiving 50 μg/kg PanCyte for 49 days, a group receiving 500 μg/kg PanCyte for 49 days, and a group receiving 50 μg/kg PanCyte for 14 days.
(§4) Animals were subjected to a modified Modified Neurological Rating Scale (mNRS) at 24 hours post reperfusion. Only animals with an overall score of ≧10 were included in this study. Animals were allocated into the test groups, according to the mNRS results on day 2, in order to have similar distribution of rats performance between groups. Starting on day 2, 24 hours post-surgery, animals in groups 4, 5 and 7 were implanted subcutaneously with an osmotic Alzet pump and treated with either 500 μg/kg TXA127 (SEQ ID NO:1), 500 μg/kg PanCyte (SEQ ID NO:22), or 50 μg/kg Linear PanCyte (SEQ ID NO:6). Animals in groups 2, 3 and 6 received 500 μg/kg or 1,000 μg/kg TXA127 or 500 μg/kg PanCyte, administered subcutaneously via daily injection. Animals in group 1 were treated with a daily subcutaneous injection of a PBS (vehicle).
Animals were tested for forelimb akinesia in a stepping test (ST). The animal was held with its hind limbs fixed with one hand and the forelimb not to be monitored with the other, while the unrestrained fore-paw touches the table. […]

[2] = test system: MCAO rat model of ischemic stroke; assay: Modified Neurological Rating Scale (mNRS) evaluation after tMCAO; conditions: Example 1, continuous s.c. Alzet pump
Description: as §1
as §2, with “cages. […]” for “cages.”
The Modified Neurological Rating Scale (mNRS) was administered by an individual who was unaware of the drug/dose given (blind test). […] Four groups were analyzed in this test, a control group (receiving only PBS for 49 days), a group receiving 50 μg/kg PanCyte for 49 days, a group receiving 500 μg/kg PanCyte for 49 days, and a group receiving 50 μg/kg PanCyte for 14 days. […]

[3] = test system: MCAO rat model of ischemic stroke; assay: Forelimb placement test after tMCAO; conditions: for forelimb placing test performance vs control: Example 1, continuous s.c. Alzet pump
Description: as §1, §2, §3
The limb placing tests were divided into both forelimb and hindlimb tests. For the forelimb-placing test, the examiner held the rat close to a tabletop and scored the rat's ability to place the forelimb on the tabletop in response to whisker, visual, tactile, or proprioceptive stimulation. Similarly, for the hindlimb placing test, the examiner assessed the rat's ability to place the hindlimb on the tabletop in response to tactile and proprioceptive stimulation. […]

[4] = test system: MCAO rat model of ischemic stroke; assay: Body swing test after tMCAO; conditions: for body swing test performance vs control: continuous s.c. Alzet pump; for body swing test performance vs vehicle control / body swing test performance level: Example 2, 28 days; for body swing test performance level: Day 49
Description: as §1, §2, §3
The rat was held approximately one inch from the base of its tail. It was then elevated to an inch above a surface of a table. The rat was held in the vertical axis, defined as no more than 10° to either the left or the right side. A swing was recorded whenever the rat moved its head out of the vertical axis to either side. Before attempting another swing, the rat had to return to the vertical position for the next swing to be counted. Twenty (20) total swings were counted. A normal rat typically has an equal number of swings to either side. Following focal ischemia, rats tend to swing to the contralateral side (left side in this example). Body swing scores are expressed as a percentage of rightward over total swings. […] Four groups were analyzed in this test, a control group (receiving only PBS for 49 days), a group receiving 50 μg/kg PanCyte for 49 days, a group receiving 500 μg/kg PanCyte for 49 days, and a group receiving 50 μg/kg PanCyte for 14 days.
as §4, with “Animals in group 1 were treated with a daily subcutaneous injection of a PBS (vehicle).” left out

[5] = test system: MCAO rat model of ischemic stroke; assay: Overall post-stroke performance in tMCAO rats, Example 2 comparison; conditions: 50 μg/kg Linear PanCyte as compared to 500 μg/kg of PanCyte
Description: The animal model, surgical procedures, and animal care procedures and conditions were as described above for Example 1 unless otherwise specified.
as §4
In addition to the performance benefits discussed above, blood flow and blood vessel diameter was measured using Laser Doppler, according to known protocols, in each non-Alzet group on Day 50.

Question: With CCC(C)C1NC(=O)C(NC(=O)C(NC(=O)C(CCCNC(=N)N)NC(=O)C(N)CC(=O)O)C(C)C)CSCC(C(=O)O)NC(=O)C(Cc2c[nH]cn2)NC1=O (centres unmarked) [PanCyte, Asp^1-Arg^2-Val^3-Ser^4-Ile^5-His^6-Cys^7 (SEQ ID NO: 22)] as the compound, how does the “stepping test performance vs control” value ([1]; Example 1, 50 μg/kg for 14 days, continuous s.c. Alzet pump, trending toward improvement) read?
Answer: did not reach statistically significant levels

Question: What about the “stepping test performance vs control” value ([1]; Example 1, 50 μg/kg for 49 days, continuous s.c. Alzet pump) of the same compound?
Answer: performed significantly better than controls

Question: What about the “stepping test performance vs control” value ([1]; Example 1, 500 μg/kg for 49 days, continuous s.c. Alzet pump, trending toward improvement) of the same compound?
Answer: did not reach statistically significant levels

Question: What about the “stepping test performance (number of adjusting steps) vs control” value ([1]; Example 1, each PanCyte group (50 μg/kg 49 days, 500 μg/kg 49 days, 50 μg/kg 14 days), continuous s.c. Alzet pump, day 22, continued through day 36) of the same compound?
Answer: increased performance of rats by day 22

Question: What about the “stepping test performance vs vehicle control” value ([1]; Example 2) of the same compound?
Answer: significantly improved the performance of treated rats

Question: What about the “mNRS performance vs control” value ([2]; 50 μg/kg for 49 days, days 8 and 15) of the same compound?
Answer: statistically improved performance on days 8 and 15

Question: And the “mNRS performance vs control” value ([2]; 500 μg/kg for 49 days, day 22)?
Answer: statistically improved performance on day 22

Question: And the “mNRS performance vs control” value ([2]; each PanCyte group (50 μg/kg 49 days, 500 μg/kg 49 days, 50 μg/kg 14 days), day 29 and 36)?
Answer: improved performance on the test by day 29

Question: What about the “forelimb placing test performance vs control” value ([3]; 50 μg/kg for 14 days, from day 15) of the same compound?
Answer: performed significantly better than control animals beginning on day 15

Question: What about the “forelimb placing test performance vs control” value ([3]; each PanCyte group (50 μg/kg 49 days, 500 μg/kg 49 days, 50 μg/kg 14 days), day 29, continued to day 36) of the same compound?
Answer: increased performance on this test by day 29

Question: What about the “forelimb placing test performance vs control” value ([3]; other treatment groups (50 μg/kg 49 days, 500 μg/kg 49 days), trending before day 29) of the same compound?
Answer: did not reach statistical significance until day 29

Question: What about the “body swing test performance vs control” value ([4]; Example 1, 50 μg/kg for 14 days, from day 29) of the same compound?
Answer: showed statistical significance beginning on day 29

Question: What about the “body swing test scores vs control” value ([4]; Example 1, all treatment groups, from day 8) of the same compound?
Answer: trend toward improved scores beginning on day 8

Question: What about the “body swing test performance vs control” value ([4]; Example 1, each PanCyte group (50 μg/kg 49 days, 500 μg/kg 49 days, 50 μg/kg 14 days), day 36) of the same compound?
Answer: improved performance on the test by day 36

Question: What about the “body swing test performance vs vehicle control” value ([4]; 500 μg/kg daily s.c. injection, Day 28) of the same compound?
Answer: significant improvement in performance by Day 28

Question: What about the “body swing test performance vs vehicle control” value ([4]; PanCyte Alzet group, 500 μg/kg s.c. Alzet pump, Day 21) of the same compound?
Answer: showed improvement by Day 21

Question: What about the “body swing test performance vs vehicle control” value ([4]; PanCyte Alzet group, 500 μg/kg s.c. Alzet pump, Day 28) of the same compound?
Answer: significant improvement in performance by Day 28

Question: With “Asp^1-Arg^2-Val^3-Ser^4-Ile^5-His^6-Cys^7 (SEQ ID NO:6) (DRVSIHC) [Linear PanCyte, non-cyclized form of PanCyte]” as the compound, how does the “stepping test results compared with ten times as much TXA127 or PanCyte” value ([1]; Example 2, 50 ug/kg, s.c. Alzet pump, 28 days, vs 500 μg/kg TXA127 or PanCyte) read?
Answer: substantially equivalent

Question: And the “stepping test performance vs vehicle control” value ([1]; Example 2)?
Answer: significantly improved the performance of treated rats

Question: And the “effectiveness compared with PanCyte” value [5]?
Answer: almost equally effective

Question: And the “forelimb placing test performance compared with the other experimental groups” value ([3]; Example 2, 50 μg/kg, s.c. Alzet pump, 28 days, particularly from Day 35 onward)?
Answer: best performance

Question: What about the “body swing test performance vs vehicle control” value ([4]; 50 μg/kg s.c. Alzet pump, Day 21) of the same compound?
Answer: showed improvement by Day 21

Question: What about the “body swing test performance vs vehicle control” value ([4]; 50 μg/kg s.c. Alzet pump, Day 28) of the same compound?
Answer: significant improvement in performance by Day 28

Question: And the “body swing test performance level” value ([4]; 50 μg/kg s.c. Alzet pump)?
Answer: near-normal (uninjured) level

Question: For “Asp^1-Arg^2-Val^3-Tyr^4-Ile^5-His^6-Pro^7 (SEQ ID NO: 1) (DRVYIHP) [TXA127]”, which “stepping test performance vs vehicle control” value ([1]; Example 2) is on record?
Answer: significantly improved the performance of treated rats

Question: What about the “body swing test performance vs vehicle control” value ([4]; 500 μg/kg daily s.c. injection, before Day 35) of the same compound?
Answer: did not show significant results until Day 35

Question: And the “body swing test performance vs vehicle control” value ([4]; 500 μg/kg s.c. Alzet pump, Day 21)?
Answer: showed improvement by Day 21

Question: What about the “body swing test performance vs vehicle control” value ([4]; 500 μg/kg s.c. Alzet pump, Day 28) of the same compound?
Answer: significant improvement in performance by Day 28

Question: What about the “body swing test performance vs vehicle control” value ([4]; 1,000 μg/kg daily s.c. injection, Day 21) of the same compound?
Answer: showed improvement by Day 21

Question: What about the “body swing test performance vs vehicle control” value ([4]; 1,000 μg/kg daily s.c. injection, Day 28) of the same compound?
Answer: significant improvement in performance by Day 28

Question: And the “body swing test performance level” value ([4]; TXA 1,000 g/kg group, daily s.c. injection)?
Answer: near-normal (uninjured) level

Question: And the “body swing test performance level” value ([4]; TXA Alzet group, 500 μg/kg s.c. Alzet pump)?
Answer: near-normal (uninjured) level
